# Measured values published in patent US12583818B2 (DAEGU-GYEONGBUK MEDICAL INNOVATION FOUNDATION, priority 2020, dated 2026).
# Molecular target: T1, Pin1 (Homo sapiens, UniProt Q13526)
# T1 construct: purchased Anaspec
# Assay: Evaluation of Pin1 enzyme inhibitory activity (Sensolyte Green Pin1 assay kit)
# Type: biochemical
# Conditions: Table 2; read-out: concentration at which Pin1 inhibitory activity was exhibited
# Procedure: In order to evaluate the Pin1 enzyme inhibitory activity of the compound represented by formula 1 according to the present invention, the following experiment was performed, and the results are shown in Table 2 below.
# The enzyme activity of Pin1 protein was measured using a sensolyte Green Pin1 assay kit of Anaspec. The substrate was diluted in a buffer at a ratio of 1:100 to prepare a concentration of 1 μM, and the protein was diluted in a buffer at a ratio of 1:20 to prepare a concentration of 50 μg/ml. In addition, a developing solution was prepared by diluting thereof in a buffer at a ratio of 1:100.
# The compound prepared in each example was diluted with DMSO and prepared at a concentration of 100 μM, 10 μM, 1 μM or 0.1 μM using a buffer. After sequentially adding 10 μl of the compound prepared in each Example diluted to four concentrations according to the above method, 10 μl of Pin1 protein, and 30 μl of the developing solution to each well of a black 96-well plate, […]. Finally, 50 μl of the substrate was added to each well of the plate, and the enzyme reaction was carried out after shaking the plate for 10 seconds.
# Then, the plate was incubated for 2 hours at room temperature in an environment without light, and the fluorescence values at 490 nm/520 nm wavelength were measured using a device of Synergy Neo […]. The results are shown in Table 2 below by dividing the grades of A to D for each concentration (μM) at which the Pin1 enzyme activity is inhibited.
# T1 sequence (Q13526 whole entry): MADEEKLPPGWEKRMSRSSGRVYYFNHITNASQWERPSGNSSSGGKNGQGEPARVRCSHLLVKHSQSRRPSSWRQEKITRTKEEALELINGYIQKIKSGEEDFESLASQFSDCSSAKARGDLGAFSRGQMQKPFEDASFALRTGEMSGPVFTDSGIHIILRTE
row,SMILES,IC50 [nM]
1,"O=S(=O)(NCCCc1c[nH]c2ccc(Cl)cc12)c1ccc(OCCCN2CCCCC2)cc1 [Example 87, N-(3-(5-chloro-1H-indol-3-yl)propyl)-4-(3-(piperidin-1-yl)propoxy)benzenesulfonamide]",< 1000
2,"O=S(=O)(NCCCc1c[nH]c2ccc(Cl)cc12)c1ccc(OCCCN2CCCCCC2)cc1 [Example 101, 4-(3-(azepan-1-yl)propoxy)-N-(3-(5-chloro-1H-indol-3-yl)propyl)benzenesulfonamide]",< 1000
3,"O=S(=O)(NCCCc1c[nH]c2ccc(Cl)cc12)c1ccc(OCCCN2CCCNCC2)cc1 [Example 102, 4-(3-(1,4-diazepan-1-yl)propoxy)-N-(3-(5-chloro-1H-indol-3-yl)propyl)benzenesulfonamide]",< 1000
4,"CC1CN(CCCOc2ccc(S(=O)(=O)NCCCc3c[nH]c4ccc(Cl)cc34)cc2)CCN1 (stereo not shown) [Example 107, N-(3-(5-chloro-1H-indole-3-yl)propyl)-4-(3-(3-methylpiperazine-1-yl)propoxy)benzenesulfonamide]",< 1000
5,"CN1CCN(CC2(COc3ccc(S(=O)(=O)NCCCc4c[nH]c5ccc(Cl)cc45)cc3)CC2)CC1 [Example 116, N-(3-(5-chloro-1H-indole-3-yl)propyl)-4-((1-((4-methylpiperazine-1-yl)methyl)cyclopropyl)methoxy)benzenesulfonamide]",< 1000

# Same assay, conditions: concentration at which the Pin1 enzyme activity is inhibited; 2 hours at room temperature, fluorescence 490 nm/520 nm; read-out: Pin 1 inhibition
row,SMILES,IC50 [nM]
1,"O=S(=O)(NCCCc1c[nH]c2ccc(F)cc12)c1ccc(OCCCN2CCN(CC(F)(F)F)CC2)cc1 [Example 74, N-(3-(5-fluoro-1H-indol-3-yl)propyl)-4-(3-(4-(2,2,2-trifluoroethyl)piperazin-1-yl)propoxy)benzenesulfonamide]",1000 to 10000
2,"O=S(=O)(NCCCc1c[nH]c2ccc(Cl)cc12)c1ccc(OCCCN2CCN(CC(F)(F)F)CC2)cc1 [Example 76, N-(3-(5-chloro-1H-indol-3-yl)propyl)-4-(3-(4-(2,2,2-trifluoroethyl)piperazin-1-yl)propoxy)benzenesulfonamide]",1000 to 10000
3,"O=S(=O)(NCCCc1c[nH]c2ccc(F)cc12)c1ccc(OCCCN2CCCCC2)cc1 [Example 84, N-(3-(5-fluoro-1H-indol-3-yl)propyl)-4-(3-(piperidin-1-yl)propoxy)benzenesulfonamide]",1000 to 10000
4,"CN1CCN(CCCOc2ccc(S(=O)(=O)NC3CCCC(c4c[nH]c5ccccc45)C3)cc2)CC1 (stereo not shown) [Example 85, N-(3-(1H-indole-3-yl)cyclohexyl)-4-(3-(4-methylpiperazine-1-yl)propoxy)benzenesulfonamide]",10000 to 100000
5,"O=S(=O)(NCCCc1c[nH]c2ccc(Cl)cc12)c1ccc(OCCCN2CCCCC2)cc1 [Example 87, N-(3-(5-chloro-1H-indol-3-yl)propyl)-4-(3-(piperidin-1-yl)propoxy)benzenesulfonamide]",< 1000
6,"CN1CCN(CCCOc2ccc(S(=O)(=O)Nc3cccc(-c4c[nH]c5ccccc45)c3)cc2)CC1 [Example 89, N-(3-(1H-indole-3-yl)phenyl)-4-(3-(4-methylpiperazine-1-yl)propoxy)benzenesulfonamide]",10000 to 100000
7,"O=S(=O)(NCCCc1c[nH]c2ccc(Cl)cc12)c1cccc(OCCCC2CCNCC2)c1 [Example 94, N-(3-(5-chloro-1H-indol-3-yl)propyl)-3-(3-(piperidin-4-yl)propoxy)benzenesulfonamide]",1000 to 10000
8,"O=S(=O)(NCCCc1c[nH]c2ccc(Cl)cc12)c1cccc(OCCCN2CCNCC2)c1 [Example 96, N-(3-(5-chloro-1H-indol-3-yl)propyl)-3-(3-(piperazin-1-yl)propoxy)benzenesulfonamide]",1000 to 10000
9,"O=S(=O)(NCCCc1c[nH]c2ccc(F)cc12)c1ccc(OCCCC2CCNCC2)cc1 [Example 97, N-(3-(5-fluoro-1H-indol-3-yl)propyl)-4-(3-(piperidin-4-yl)propoxy)benzenesulfonamide]",1000 to 10000
10,"O=S(=O)(NCCCc1c[nH]c2ccc(Cl)cc12)c1ccc(OCCCN2CCCCCC2)cc1 [Example 101, 4-(3-(azepan-1-yl)propoxy)-N-(3-(5-chloro-1H-indol-3-yl)propyl)benzenesulfonamide]",< 1000
11,"O=S(=O)(NCCCc1c[nH]c2ccc(Cl)cc12)c1ccc(OCCCN2CCCNCC2)cc1 [Example 102, 4-(3-(1,4-diazepan-1-yl)propoxy)-N-(3-(5-chloro-1H-indol-3-yl)propyl)benzenesulfonamide]",< 1000
12,"CC1CN(CCCOc2ccc(S(=O)(=O)NCCCc3c[nH]c4ccc(Cl)cc34)cc2)CCN1 (stereo not shown) [Example 107, N-(3-(5-chloro-1H-indole-3-yl)propyl)-4-(3-(3-methylpiperazine-1-yl)propoxy)benzenesulfonamide]",< 1000
13,"CN1CCN(CC2(COc3ccc(S(=O)(=O)NCCCc4c[nH]c5ccc(Cl)cc45)cc3)CC2)CC1 [Example 116, N-(3-(5-chloro-1H-indole-3-yl)propyl)-4-((1-((4-methylpiperazine-1-yl)methyl)cyclopropyl)methoxy)benzenesulfonamide]",< 1000
14,"O=S(=O)(NCCCc1c[nH]c2ccc(Cl)cc12)c1ccc(Oc2cccc(Br)c2)cc1 [Example 119, 4-(3-bromophenoxy)-N-(3-(5-chloro-1H-indol-3-yl)propyl)benzenesulfonamide]",1000 to 10000
15,"O=S(=O)(NCCCc1c[nH]c2ccc(Cl)cc12)c1ccc(Oc2cccc(N3CCCCC3)c2)cc1 [Example 120, N-(3-(5-chloro-1H-indol-3-yl)propyl)-4-(3-(piperidin-1-yl)phenoxy)benzenesulfonamide]",1000 to 10000
16,"CN1CCCN(c2cccc(Oc3ccc(S(=O)(=O)NCCCc4c[nH]c5ccc(Cl)cc45)cc3)c2)CC1 [Example 122, N-(3-(5-chloro-1H-indol-3-yl)propyl)-4-(3-(4-methyl-1,4-diazepan-1-yl)phenoxy)benzenesulfonamide]",1000 to 10000

row,SMILES,IC50 [nM]
1,"O=S(=O)(NCCCc1c[nH]c2ccc(Cl)cc12)c1ccc(Nc2cccc(N3CCOCC3)c2)cc1 [Example 126, N-(3-(5-chloro-1H-indol-3-yl)propyl)-4-((3-morpholinophenyl)amino)benzenesulfonamide]",1000 to 10000
2,"O=S(=O)(NCCCc1c[nH]c2ccc(Cl)cc12)c1ccc(Oc2cccc(N3CCOCC3)c2)cc1 [Example 128, N-(3-(5-chloro-1H-indol-3-yl)propyl)-4-(3-morpholinophenoxy)benzenesulfonamide]",1000 to 10000
3,"O=S(=O)(NCCCc1c[nH]c2ccc(Cl)cc12)c1ccc(Oc2cccc(N3CCCNCC3)c2)cc1 [Example 129, 4-(3-(1,4-diazepan-1-yl)phenoxy)-N-(3-(5-chloro-1H-indol-3-yl)propyl)benzenesulfonamide]",1000 to 10000
4,"CN1CCN(c2cccc(Nc3ccc(S(=O)(=O)NCCCc4c[nH]c5ccc(Cl)cc45)cc3)n2)CC1 [Example 131, N-(3-(5-chloro-1H-indol-3-yl)propyl)-4-((6-(4-methylpiperazin-1-yl)pyridin-2-yl)amino)benzenesulfonamide]",1000 to 10000
5,"O=S(=O)(NCCCc1c[nH]c2ccc(Cl)cc12)c1ccc(Nc2cccc(N3CCNCC3)n2)cc1 [Example 132, N-(3-(5-chloro-1H-indol-3-yl)propyl)-4-((6-(piperazin-1-yl)pyridin-2-yl)amino)benzenesulfonamide]",1000 to 10000
6,"O=S(=O)(NCCCc1c[nH]c2ccc(Cl)cc12)c1ccc(Oc2cccc(N3CCCC3)c2)cc1 [Example 135, N-(3-(5-chloro-1H-indol-3-yl)propyl)-4-(3-(pyrrolidin-1-yl)phenoxy)benzenesulfonamide]",1000 to 10000
7,"O=S(=O)(NCCCc1c[nH]c2ccc(Cl)cc12)c1ccc(Oc2cccc(N3CCC(O)CC3)c2)cc1 [Example 136, N-(3-(5-chloro-1H-indol-3-yl)propyl)-4-(3-(4-hydroxypiperidin-1-yl)phenoxy)benzenesulfonamide]",1000 to 10000
8,"O=S(=O)(NCCCc1c[nH]c2ccc(Cl)cc12)c1ccc(Nc2cccc(N3CCC(O)CC3)c2)cc1 [Example 139, N-(3-(5-chloro-1H-indol-3-yl)propyl)-4-((3-(4-hydroxypiperidin-1-yl)phenyl)amino)benzenesulfonamide]",1000 to 10000
9,"CN1CCN(c2ccc(Nc3ccc(S(=O)(=O)NCCCc4c[nH]c5ccc(Cl)cc45)cc3)cc2)CC1 [Example 142, N-(3-(5-chloro-1H-indol-3-yl)propyl)-4-((4-(4-methylpiperazin-1-yl)phenyl)amino)benzenesulfonamide]",1000 to 10000
10,"O=C(NCCCc1c[nH]c2ccc(Cl)cc12)c1ccc(OCCCN2CCNCC2)cc1 [Example 144, N-(3-(5-chloro-1H-indol-3-yl)propyl)-4-(3-(piperazin-1-yl)propoxy)benzamide]",1000 to 10000
11,"O=S(=O)(NCCCc1c[nH]c2ccc(-c3ccccc3)cc12)c1ccc(OCCCN2CCNCC2)cc1 [Example 155, N-(3-(5-phenyl-1H-indol-3-yl)propyl)-4-(3-(piperazin-1-yl)propoxy)benzenesulfonamide]",1000 to 10000
12,"CN1CCN(CCCOc2ccc(S(=O)(=O)NCCCc3c[nH]c4ccc(-c5ccccc5)cc34)cc2)CC1 [Example 156, 4-(3-(4-methylpiperazin-1-yl)propoxy)-N-(3-(5-phenyl-1H-indol-3-yl)propyl)benzenesulfonamide]",1000 to 10000
13,"CN1CCN(CCCOc2ccc(S(=O)(=O)NCCCc3c[nH]c4ccc(Cl)cc34)cc2)CC1=O [Example 162, N-(3-(5-chloro-1H-indol-3-yl)propyl)-4-(3-(4-methyl-3-oxopiperazin-1-yl)propoxy)benzenesulfonamide]",1000 to 10000
14,"O=C1CN(CCCOc2ccc(S(=O)(=O)NCCCc3c[nH]c4ccc(Cl)cc34)cc2)CCN1 [Example 163, N-(3-(5-chloro-1H-indol-3-yl)propyl)-4-(3-(3-oxopiperazin-1-yl)propoxy)benzenesulfonamide]",1000 to 10000
15,"CN1CCN(CCCOc2ccc(S(=O)(=O)NC3CCCC(c4c[nH]c5ccc(Cl)cc45)C3)cc2)CC1 (stereo not shown) [Example 179, N-(3-(5-chloro-1H-indol-3-yl)cyclohexyl)-4-(3-(4-methylpiperazin-1-yl)propoxy)benzenesulfonamide]",1000 to 10000
16,"O=S(=O)(NC1CCCC(c2c[nH]c3ccc(Cl)cc23)C1)c1ccc(OCCCN2CCNCC2)cc1 (stereo not shown) [Example 180, N-(3-(5-chloro-1H-indol-3-yl)cyclohexyl)-4-(3-(piperazin-1-yl)propoxy)benzenesulfonamide]",1000 to 10000
